Source: patent publication US12065399B2, “Arylsulfonamide derivatives” (Hoffmann-La Roche Inc., priority 2019, dated 2024)
Counter-ions that a name gives are not always drawn.

Target: human mGlu4 receptor (Homo sapiens (Human), UniProt Q14833)
Assay: Intracellular Ca2+ mobilization assay (FLIPR), mGlu4 NAM
Assay type: cell-based
Conditions: HEK-293 cells stably transfected with human mGlu4; inhibition of L-AP4 (EC80) response; IC50
Experimental: 2.1) Intracellular Ca^2+ Mobilization Assay (FLIPR)
A monoclonal HEK-293 cell line stably transfected with a cDNA encoding for the human mGlu4 receptor was generated. Cells were cultured according to standard protocols (Freshney, 2000) in Dulbecco's Modified Eagle Medium with high glucose supplemented with 1 mM glutamine, 10% (vol/vol) heat-inactivated bovine calf serum, penicillin/streptomycin, 50 μg/ml hygromycin and 15 μg/ml blasticidin (all cell culture reagents and antibiotics from Invitrogen, Basel, Switzerland).
About 24 hrs before an experiment, 5×10^4 cells/well were seeded in poly-D-lysine coated, black/clear-bottomed 96-well plates. The cells were loaded with 2.5 μM Fluo-4AM in loading buffer (1×HBSS, 20 mM HEPES) for 1 hr at 37° C. and washed five times with loading buffer. The cells were transferred into a Functional Drug Screening System 7000 (Hamamatsu, Paris, France), and 11 half logarithmic serial dilutions of test compound at 37° C. were added and the cells were incubated for 10-30 min. with on-line recording of fluorescence. Following this pre-incubation step, the agonist (2S)-2-amino-4-phosphonobutanoic acid (L-AP4) was added to the cells at a concentration corresponding to EC80 with on-line recording of fluorescence; in order to account for day-to-day variations in the responsiveness of cells, the EC80 of L-AP4 was determined immediately ahead of each experiment by recording of a full dose-response curve of L-AP4.
Responses were measured as peak increase in fluorescence minus basal (i.e. fluorescence without addition of L-AP4), normalized to the maximal stimulatory effect obtained with saturating concentrations of L-AP4. Graphs were plotted with the % maximal stimulatory using XLfit, a curve fitting program that iteratively plots the data using Levenburg Marquardt algorithm. The single site competition analysis equation used was y=A+((B-A)/(1+((x/C)D))), where y is the % maximal stimulatory effect, A is the minimum y, B is the maximum y, C is the IC50, x is the log 10 of the concentration of the competing compound and D is the slope of the curve (the Hill Coefficient). From these curves the IC50 (drug concentration at which 50% of the receptor activation achieved from the addition of L-AP4 in the experiment was inhibited), the Hill coefficient as well as the maximal response in % of the maximal stimulatory effect obtained with saturating concentrations of L-AP4 were calculated (see FIG. 1).

Sequence of human mGlu4 receptor (Q14833 33-912): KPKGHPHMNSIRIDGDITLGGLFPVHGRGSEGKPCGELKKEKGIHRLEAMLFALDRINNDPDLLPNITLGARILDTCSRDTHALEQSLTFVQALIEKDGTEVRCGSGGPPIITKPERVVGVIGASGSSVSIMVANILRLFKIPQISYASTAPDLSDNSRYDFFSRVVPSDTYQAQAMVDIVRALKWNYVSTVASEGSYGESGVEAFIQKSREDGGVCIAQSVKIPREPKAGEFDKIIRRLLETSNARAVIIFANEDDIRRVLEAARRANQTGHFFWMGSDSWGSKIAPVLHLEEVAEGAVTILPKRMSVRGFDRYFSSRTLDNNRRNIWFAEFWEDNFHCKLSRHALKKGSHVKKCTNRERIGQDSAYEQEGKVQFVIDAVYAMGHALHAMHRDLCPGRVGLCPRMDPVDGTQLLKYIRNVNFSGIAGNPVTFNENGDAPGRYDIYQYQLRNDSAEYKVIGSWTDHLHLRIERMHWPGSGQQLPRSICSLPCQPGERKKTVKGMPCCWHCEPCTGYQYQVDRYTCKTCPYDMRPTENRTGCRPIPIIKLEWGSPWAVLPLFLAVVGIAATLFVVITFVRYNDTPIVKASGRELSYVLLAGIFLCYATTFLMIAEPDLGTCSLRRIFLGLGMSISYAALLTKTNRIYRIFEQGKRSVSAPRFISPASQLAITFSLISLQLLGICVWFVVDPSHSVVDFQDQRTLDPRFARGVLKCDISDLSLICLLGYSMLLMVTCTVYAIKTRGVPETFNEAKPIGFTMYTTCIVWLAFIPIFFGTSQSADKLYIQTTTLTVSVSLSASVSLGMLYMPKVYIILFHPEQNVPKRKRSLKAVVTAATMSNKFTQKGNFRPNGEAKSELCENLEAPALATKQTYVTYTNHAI

For `Cn1nccc1S(=O)(=O)Nc1c(F)cc(C#Cc2cncc(F)c2)cc1F` [Example 39, N-[2,6-difluoro-4-[2-(5-fluoro-3-pyridyl)ethynyl]phenyl]-2-methyl-pyrazole-3-sulfonamide; 2,2,2-trifluoroacetic acid salt], the EC50 was 10500 nM.
Compound `COc1ccc(Cl)c(S(=O)(=O)Nc2c(F)cc(C#Cc3ccccc3)cc2F)c1` [Example 18, 2-chloro-N-[2,6-difluoro-4-(2-phenylethynyl)phenyl]-5-methoxy-benzenesulfonamide] has an EC50 of 3940 nM.
Work on `O=S(=O)(Nc1c(F)cc(C#Cc2ccccc2)cc1F)c1cccnc1Cl` [Example 22, 2-chloro-N-[2,6-difluoro-4-(2-phenylethynyl)phenyl]pyridine-3-sulfonamide] yielded an EC50 of 4330 nM.
Compound `Cc1cncc(C#Cc2cc(F)c(NS(=O)(=O)c3cccc(Cl)c3C)c(F)c2)c1` [Example 56, 3-chloro-N-[2,6-difluoro-4-[2-(5-methyl-3-pyridyl)ethynyl]phenyl]-2-methyl-benzenesulfonamide; 2,2,2-trifluoroacetic acid] has an EC50 of 1470 nM.
Compound `O=S(=O)(Nc1c(F)cc(C#Cc2ccccc2)cc1F)c1cccc(Cl)c1` [Example 8, 3-chloro-N-[2,6-difluoro-4-(2-phenylethynyl)phenyl]benzenesulfonamide] has an EC50 of 5920 nM.
Work on `O=S(=O)(Nc1c(F)cc(C#Cc2ccccc2)cc1F)c1cccc(Cl)c1Cl` [Example 2, 2,3-dichloro-N-[2,6-difluoro-4-(2-phenylethynyl)phenyl]benzenesulfonamide] yielded an EC50 of 1680 nM.
Work on `O=S(=O)(Nc1c(F)cc(C#Cc2cccnc2)cc1F)c1ccccc1Cl` [Example 9, 2-chloro-N-[2,6-difluoro-4-[2-(3-pyridyl)ethynyl]phenyl]benzenesulfonamide] yielded an EC50 of 14200 nM.
Work on `Cc1ccncc1S(=O)(=O)Nc1c(F)cc(C#Cc2ccccc2)cc1F` [Example 31, N-[2,6-difluoro-4-(2-phenylethynyl)phenyl]-4-methyl-pyridine-3-sulfonamide] yielded an EC50 of 1400 nM.
In the case of `O=S(=O)(Nc1c(F)cc(C#Cc2ccccc2)cc1F)c1cccc(F)c1Cl` [Example 17, 2-chloro-N-[2,6-difluoro-4-(2-phenylethynyl)phenyl]-3-fluoro-benzenesulfonamide], the EC50 is reported as 734 nM.
Work on `O=S(=O)(Nc1c(F)cc(C#Cc2ccccc2)cc1F)c1ccccc1Cl` [Example 1, 2-chloro-N-[2,6-difluoro-4-(2-phenylethynyl)phenyl]benzenesulfonamide] yielded an EC50 of 4280 nM.
Work on `COc1cccc(C#Cc2cc(F)c(NS(=O)(=O)c3cccc(Cl)c3C)c(F)c2)c1` [Example 42, 3-chloro-N-[2,6-difluoro-4-[2-(3-methoxyphenyl)ethynyl]phenyl]-2-methyl-benzenesulfonamide] yielded an EC50 of 1320 nM.
With `COCc1c(Cl)cccc1S(=O)(=O)Nc1c(F)cc(C#Cc2ccccc2)cc1F` [Example 32, 3-chloro-N-[2,6-difluoro-4-(2-phenylethynyl)phenyl]-2-(methoxymethyl)benzenesulfonamide] the EC50 was 3880 nM.
`Cc1ccc(C)c(S(=O)(=O)Nc2c(F)cc(C#Cc3ccccc3)cc2F)c1` [Example 30, N-[2,6-difluoro-4-(2-phenylethynyl)phenyl]-2,5-dimethyl-benzenesulfonamide] gave an EC50 of 1340 nM.
`Cc1c(Cl)cccc1S(=O)(=O)Nc1c(F)cc(C#Cc2cncc(F)c2)cc1F` [Example 52, 3-chloro-N-[2,6-difluoro-4-[2-(5-fluoro-3-pyridyl)ethynyl]phenyl]-2-methyl-benzenesulfonamide] showed an EC50 of 761 nM.
For `CC(C)(C)c1cnn(-c2cc(F)c(NS(=O)(=O)c3cc(Cl)cc(Cl)c3)c(F)c2)c1` [Example 60, N-[4-(4-tert-butylpyrazol-1-yl)-2,6-difluoro-phenyl]-3,5-dichloro-benzenesulfonamide], the EC50 was 6720 nM.
With `Cc1cc(F)c(C)c(S(=O)(=O)Nc2c(F)cc(C#Cc3ccccc3)cc2F)c1` [Example 40, N-[2,6-difluoro-4-(2-phenylethynyl)phenyl]-3-fluoro-2,5-dimethyl-benzenesulfonamide] the EC50 was 808 nM.
With `Cc1cccc(S(=O)(=O)Nc2c(F)cc(C#Cc3ccccc3)cc2F)c1Cl` [Example 16, 2-chloro-N-[2,6-difluoro-4-(2-phenylethynyl)phenyl]-3-methyl-benzenesulfonamide] the EC50 was 1560 nM.
For `Cc1ncccc1S(=O)(=O)Nc1c(F)cc(C#Cc2ccccc2)cc1F` [Example 29, N-[2,6-difluoro-4-(2-phenylethynyl)phenyl]-2-methyl-pyridine-3-sulfonamide], the EC50 was 2890 nM.
With `Cc1c(F)cccc1S(=O)(=O)Nc1c(F)cc(C#Cc2ccccc2)cc1F` [Example 37, N-[2,6-difluoro-4-(2-phenylethynyl)phenyl]-3-fluoro-2-methyl-benzenesulfonamide] the EC50 was 1050 nM.
`Cn1nccc1S(=O)(=O)Nc1c(F)cc(C#Cc2ccccc2)cc1F` [Example 25, N-[2,6-difluoro-4-(2-phenylethynyl)phenyl]-1-methyl-1H-pyrazole-5-sulfonamide] was tested, and the EC50 was 1060 nM.
`O=S(=O)(Nc1c(F)cc(C#Cc2ccccc2)cc1F)c1cncc(F)c1` [Example 24, N-[2,6-difluoro-4-(2-phenylethynyl)phenyl]-5-fluoropyridine-3-sulfonamide] showed an EC50 of 2050 nM.
With `COc1cccc(S(=O)(=O)Nc2c(F)cc(C#Cc3ccccc3)cc2F)c1Cl` [Example 27, 2-chloro-N-[2,6-difluoro-4-(2-phenylethynyl)phenyl]-3-methoxy-benzenesulfonamide] the EC50 was 8430 nM.
Compound `Cc1nn(C)cc1S(=O)(=O)Nc1c(F)cc(C#Cc2ccccc2)cc1F` [Example 41, N-[2,6-difluoro-4-(2-phenylethynyl)phenyl]-1,3-dimethyl-pyrazole-4-sulfonamide; 2,2,2-trifluoroacetic acid salt] has an EC50 of 9350 nM.
`Cc1cc(F)c(C)c(S(=O)(=O)Nc2c(F)cc(C#Cc3cccc(O)c3)cc2F)c1` [Example 61, N-[2,6-difluoro-4-[2-(3-hydroxyphenyl)ethynyl]phenyl]-3-fluoro-2,5-dimethyl-benzenesulfonamide] gave an EC50 of 992 nM.
`Cc1cc(Cl)c(C)c(S(=O)(=O)Nc2c(F)cc(C#Cc3cncc(F)c3)cc2F)c1` [Example 54, 3-chloro-N-(2,6-difluoro-4-((5-fluoropyridin-3-yl)ethynyl)phenyl)-2,5-dimethylbenzenesulfonamide 2,2,2-trifluoroacetate] gave an EC50 of 918 nM.
For `Cn1ccc(S(=O)(=O)Nc2c(F)cc(C#Cc3ccccc3)cc2F)n1` [Example 26, N-[2,6-difluoro-4-(2-phenylethynyl)phenyl]-1-methyl-pyrazole-3-sulfonamide], the EC50 was 16000 nM.
Work on `O=S(=O)(Nc1c(F)cc(C#Cc2ccccc2)cc1F)c1ccccn1` [Example 10, N-[2,6-difluoro-4-(2-phenylethynyl)phenyl]pyridine-2-sulfonamide] yielded an EC50 of 14300 nM.
Work on `Cc1ccc(Cl)c(S(=O)(=O)Nc2c(F)cc(C#Cc3ccccc3)cc2F)c1` [Example 19, 2-chloro-N-[2,6-difluoro-4-(2-phenylethynyl)phenyl]-5-methyl-benzenesulfonamide] yielded an EC50 of 1260 nM.
In the case of `O=S(=O)(Nc1c(F)cc(C#Cc2ccccc2)cc1F)c1ccccc1C(F)(F)F` [Example 3, N-[2,6-difluoro-4-(2-phenylethynyl)phenyl]-2-(trifluoromethyl)benzenesulfonamide], the EC50 is reported as 2810 nM.
In the case of `O=S(=O)(Nc1c(F)cc(C#Cc2ccccc2)cc1F)c1cncc(Cl)c1` [Example 23, 5-chloro-N-[2,6-difluoro-4-(2-phenylethynyl)phenyl]pyridine-3-sulfonamide], the EC50 is reported as 3110 nM.
Work on `Cc1ccccc1S(=O)(=O)Nc1c(F)cc(C#Cc2ccccc2)cc1F` [Example 5, N-[2,6-difluoro-4-(2-phenylethynyl)phenyl]-2-methyl-benzenesulfonamide] yielded an EC50 of 3720 nM.
In the case of `CC(C)(C)c1cnn(-c2cc(F)c(NS(=O)(=O)c3ccccc3Cl)c(F)c2)c1` [Example 58, N-[4-(4-tert-butylpyrazol-1-yl)-2,6-difluoro-phenyl]-2-chloro-benzenesulfonamide], the EC50 is reported as 13000 nM.
With `Cc1cc(F)c(C)c(S(=O)(=O)Nc2c(F)cc(C#Cc3cccc(Cl)c3)cc2F)c1` [Example 48, N-[4-[2-(3-chlorophenyl)ethynyl]-2,6-difluoro-phenyl]-3-fluoro-2,5-dimethyl-benzenesulfonamide] the EC50 was 1250 nM.
`COc1c(Cl)cccc1S(=O)(=O)Nc1c(F)cc(C#Cc2cncc(F)c2)cc1F` [Example 15, 3-chloro-N-[2,6-difluoro-4-[2-(5-fluoro-3-pyridyl)ethynyl]phenyl]-2-methoxy-benzenesulfonamide] was tested, and the EC50 was 778 nM.
Compound `Cc1c(Cl)cccc1S(=O)(=O)Nc1c(F)cc(C#Cc2ccccc2)cc1F` [Example 20, 3-chloro-N-[2,6-difluoro-4-(2-phenylethynyl)phenyl]-2-methyl-benzenesulfonamide] has an EC50 of 1080 nM.
